By viability, T/C is commonly meant the result in the treated group divided by that in the control group, in per cent. What is called IC50 is the point on the concentration scale where inhibition reaches its midpoint.

This assay relates to 958667-338-R-J2-PDC tumor spheroids viability. In words: Anticancer human tumor 958667-338-R-J2-PDC patient-derived colon adenocarcinoma cell line growth inhibition [PI3K]. Conditions: spheroids with HUVEC and MSC; for viability, T/C: stronger effect = lower value. The method, boiled down:
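High-throughput combination screen: PI3K inhibitors crossed with targeted small molecules on complex spheroids of tumor cells, HUVEC and MSCs at 37 degrees C, 5% CO2. Top concentration was at or near clinical Cmax (otherwise 10 microM), with half-log decrements.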
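Further: spheroids exposed to compounds for seven days before readout.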

For `Cc1nc(NC(=O)N2CCCC2C(N)=O)sc1-c1ccnc(C(C)(C)C(F)(F)F)c1` (stereo not given), the viability, T/C runs as follows: (compound 3.16 µM) 71.5% [middle of 8 runs]; (compound 10 µM) 66% [middle of 8 runs]. Further, where the note is “compound alone, run of 06/12/2023”, the IC50 is above 10 µM.
Turning to `CCCS(=O)(=O)Nc1ccc(F)c(C(=O)c2c[nH]c3ncc(-c4ccc(Cl)cc4)cc23)c1F` + Cc1nc(NC(=O)N2CCCC2C(N)=O)sc1-c1ccnc(C(C)(C)C(F)(F)F)c1, the IC50 reads like this: (curve of first compound, second compound 0.0316 µM) 5.75 µM; (curve of first compound, second compound 0.1 µM) 5.49 µM; (curve of first compound, second compound 0.316 µM) 5.17 µM; (curve of first compound, second compound 1 µM) 6.58 µM; (curve of first compound, second compound 3.16 µM) 4.64 µM; (curve of first compound, second compound 10 µM) 4.35 µM. In addition, the viability, T/C reads like this: (second compound 0.0316 µM, first compound 0.0316 µM) 106%; (second compound 0.0316 µM, first compound 0.1 µM) 87.6%; (second compound 0.0316 µM, first compound 0.316 µM) 89.8%; (second compound 0.0316 µM, first compound 1 µM) 86.1%; (second compound 0.0316 µM, first compound 3.16 µM) 111%; (second compound 0.0316 µM, first compound 10 µM) 7.09%. For the same compound, the viability, T/C (second compound 0.1 µM, first compound 0.0316 µM) is 96.3%; the viability, T/C (second compound 0.1 µM, first compound 0.1 µM) is 91.9%; the viability, T/C (second compound 0.1 µM, first compound 0.316 µM) was 82.2%; the viability, T/C (second compound 0.1 µM, first compound 1 µM) was 77.2%; the viability, T/C (second compound 0.1 µM, first compound 3.16 µM) is 90.2%; the viability, T/C (second compound 0.1 µM, first compound 10 µM) was 9.01%. In addition, the viability, T/C was 90.7% (second compound 0.316 µM, first compound 0.0316 µM); 78.6% (second compound 0.316 µM, first compound 0.1 µM); 70.8% (second compound 0.316 µM, first compound 0.316 µM); 77.7% (second compound 0.316 µM, first compound 1 µM); 85.5% (second compound 0.316 µM, first compound 3.16 µM); 8.6% (second compound 0.316 µM, first compound 10 µM). Also, the viability, T/C was 79.5% (second compound 1 µM, first compound 0.0316 µM); 84.5% (second compound 1 µM, first compound 0.1 µM); 86% (second compound 1 µM, first compound 0.316 µM); 70.8% (second compound 1 µM, first compound 1 µM); 80.5% (second compound 1 µM, first compound 3.16 µM); 32.7% (second compound 1 µM, first compound 10 µM). Also, the viability, T/C (second compound 3.16 µM, first compound 0.0316 µM) was 57%; the viability, T/C (second compound 3.16 µM, first compound 0.1 µM) was 66.4%; the viability, T/C (second compound 3.16 µM, first compound 0.316 µM) is 75.9%; the viability, T/C (second compound 3.16 µM, first compound 1 µM) was 49.3%; the viability, T/C (second compound 3.16 µM, first compound 3.16 µM) is 74.3%; the viability, T/C (second compound 3.16 µM, first compound 10 µM) is 20.7%. Moreover, the viability, T/C (second compound 10 µM, first compound 0.0316 µM) was 58.1%; the viability, T/C (second compound 10 µM, first compound 0.1 µM) was 66.9%; the viability, T/C (second compound 10 µM, first compound 0.316 µM) is 60.8%; the viability, T/C (second compound 10 µM, first compound 1 µM) was 67.9%; the viability, T/C (second compound 10 µM, first compound 3.16 µM) was 74.1%; the viability, T/C (second compound 10 µM, first compound 10 µM) is 9.34%.

These data come from PubChem BioAssay AID1963963 (Molecular Pharmacology Branch, DTP, NCI, 2024).
